{
  "source": "patent EP0142075A2",
  "about": "“Purine derivatives, their preparation, and medicaments containing these compounds” (Dr. Karl Thomae GmbH, priority 1983, dated 1985)",
  "key": {"[1]": {"assay": "Acute toxicity (orientating), single oral dose in mice", "conditions": "mouse, in vivo, read-out: Orientierend akute Toxizität", "procedure": "(§1) Die akute Toxizität der zu untersuchenden Substanzen wurde orientierend an Gruppen von je 10 Mäusen nach oraler Gabe einer Einzeldosis von 300 mg/kg bestimmt (Beobachtungszeit: 14 Tage): […]"}, "[2]": {"tested_on": "Mäusen", "assay": "Acute toxicity (orientating), single oral dose in mice", "conditions": "in vivo, po, 300 mg/kg", "procedure": "as §1"}, "[3]": {"conditions": "mice, groups of 10, single oral dose of 300 mg/kg, observation time 14 days"}},
  "note": "Where two headings read alike, the source gives them in different places.",
  "data": [
    {"compound": "COC(=O)COc1ccc(-c2nc3ncncc3[nH]2)c(OC)c1", "note": "[Substanz B, 8-(2-Methoxy-4-methoxycarbonylmethoxyphenyl)-purin]", "values": [
      {"measurement": "LD50 at 336 h", "setting": "[1]; [3]", "result": "> 300", "unit": "mg/kg"},
      {"measurement": "Tieren gestorben", "setting": "[2]", "result": 0, "unit": "von 10"}
    ]},
    {"compound": "COc1cc(OCC#N)ccc1-c1nc2cncnc2[nH]1", "note": "[Substanz C, 8-(2-Methoxy-4-cyanmethoxyphenyl)-purin]", "values": [
      {"measurement": "LD50 at 336 h", "setting": "[1]; po, 300 mg/kg", "result": "> 300", "unit": "mg/kg"},
      {"measurement": "Tieren gestorben", "setting": "[2]", "result": "> 300 mg/kg (O von 10 Tieren gestorben)"}
    ]},
    {"compound": "C#CCOc1ccc(-c2nc3ncncc3[nH]2)c(OC)c1", "note": "[Substanz A, 8-(2-Methoxy-4-propargyloxyphenyl)-purin]", "values": [
      {"measurement": "LD50 at 336 h", "setting": "[1]; [3]", "result": "> 300", "unit": "mg/kg"},
      {"measurement": "Tieren gestorben", "setting": "[2]", "result": 0, "unit": "von 10"}
    ]}
  ]
}
